What follows are compounds tested against MAPKAPK2 (Homo sapiens, UniProt P49137) (assay: HTS ATP-utilizing enzyme assay, off-chip mobility-shift (Caliper HTS 250)). Details: test compound 10 μM, kinase listed = active (greater than six-sigma from the mean activity of inactive compounds).
Assay type: biochemical
From the text: The following procedures describe the reagent and plate preparation for a HTS of an ATP-utilizing enzyme, such as a protein kinase, run in an off-chip mobility-shift assay format. The following provides an HTS protocol for running a protein kinase HTS screen on a Caliper HTS 250 microfluidics system. The following parameters are dependent on the protein kinase used and can be determined by one skilled in the art as part of a typical assay development process. For example, the peptide substrate used can be identified from the current literature, by screening a peptide library of potential protein kinase substrates, or by other applicable means accepted in the field.
The following table provides typical screen assay parameters appropriate for a Caliper HTS 250 microfluidics system.
The reagents and buffers listed in the following table are generally applicable for developing and running an HTS screen on a human protein kinase using the Caliper HTS 250 system.
The following reagents were prepared using the previously described buffers.
A 2× Master Buffer solution was prepared by combining 200 mL of 1 M HEPES, pH 7.5, 2 mL of 10% Triton X-100, 20 mL of 10% BSA, and 778 mL of H2O.
A TCB Buffer solution was prepared by combining 125 mL of 2× Master Buffer, 10 mL of 0.5 M EDTA, 6.25 mL of 4% coating reagent, 1.01 mL of 100% DMSO, and 107.74 mL H2O.
Assays to determine the kinase inhibitory activity of compounds of the present disclosure were performed using a Caliper HTS 250 microfluidics device, Greiner U-bottom assay plates, a Multidrop for transfer of reagents, and Biomek FX (AMNCBM03) software. Initially, 2.4 μL of a 1 mM solution of a test compound in 100% DMSO was added to a well of the Greiner U-bottom plate. A single Greiner U-bottom plate having 24×16 wells could include multiple test compounds. […] Using the Biomek FX, 10 μL of 0.5 M EDTA was added by the span-8 to wells, indicated as 100% Control and 2.4 μL of 100% DMSO was added by the span-8 to wells, indicated as 0% Control. […] The total reaction volume in each well was 25 μL, and the concentration of the test compound was 10 μM. The assay plate was incubated for 2.5 hrs at 20° C. to 22° C. […] The inhibition of the ATP-utilizing enzyme, such as a particular protein kinase, was determined by measuring the ratio of the peptide substrate to phosphorylated product for each well of the assay plate using the Caliper HTS 250 system.
The use of six-sigma statistical limits represents a conservative method for declaring potential hits among targets. The six-sigma activity, as well as the mean population activity, can be different for each target enzyme.

MAPKAPK2, sequence (P49137 whole entry): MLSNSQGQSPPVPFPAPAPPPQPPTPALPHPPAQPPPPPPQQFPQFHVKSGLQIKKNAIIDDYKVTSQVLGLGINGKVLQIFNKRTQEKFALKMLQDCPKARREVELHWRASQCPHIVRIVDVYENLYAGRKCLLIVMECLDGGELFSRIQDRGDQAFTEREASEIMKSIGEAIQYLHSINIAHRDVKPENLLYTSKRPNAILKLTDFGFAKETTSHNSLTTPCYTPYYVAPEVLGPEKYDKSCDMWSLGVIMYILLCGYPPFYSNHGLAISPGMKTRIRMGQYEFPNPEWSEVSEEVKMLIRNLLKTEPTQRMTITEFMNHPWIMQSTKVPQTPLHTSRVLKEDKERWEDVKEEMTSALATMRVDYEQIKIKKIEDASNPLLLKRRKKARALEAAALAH

Activity, MAPKAPK2:
COc1ccc(-c2ccc3nccc(Nc4ccc(N5CCC(N(C)C)C5)cc4)c3c2)cc1 (centres unmarked) [N-(4-(3-(dimethylamino)pyrrolidin-1-yl)phenyl)-6-(4-methoxyphenyl)quinolin-4-amine]
COc1ccc(-c2ccc3nccc(Nc4ccc(N5CCN(CCC#N)CC5)cc4)c3c2)cc1 [3-(4-(4-(6-(4-methoxyphenyl)quinolin-4-ylamino)phenyl)piperazin-1-yl)propanenitrile]
Cc1cc(-c2ccc3nccc(Nc4ccc(N5CCC(N(C)C)C5)cc4)c3c2)ccc1Cl (centres unmarked) [6-(4-chloro-3-methylphenyl)-N-(4-(3-(dimethylamino)pyrrolidin-1-yl)phenyl)quinolin-4-amine]
CN1CCN(c2ccc(Oc3ccnc4ccc(-c5ccc(Cl)cc5)cc34)cc2)CC1 [6-(4-chlorophenyl)-4-(4-(4-methylpiperazin-1-yl)phenoxy)quinoline]
CCC(C)N1CCN(c2ccc(Nc3ccnc4ccc(-c5ccccc5)cc34)cc2)CC1 (centres unmarked) [N-(4-(4-sec-butylpiperazin-1-yl)phenyl)-6-phenylquinolin-4-amine]
Cc1ccc(-c2ccc3nccc(Nc4ccc(N(C)C5CCN(C)C5)cc4)c3c2)nc1 (centres unmarked) [N1-methyl-N4-(6-(5-methylpyridin-2-yl)quinolin-4-yl)-N1-(1-methylpyrrolidin-3-yl)benzene-1,4-diamine]
CC(C)N1CCN(c2ccc(Nc3ccnc4ccc(-c5ccc(C#N)cc5)cc34)cc2)CC1 [4-(4-(4-(4-isopropylpiperazin-1-yl)phenylamino)quinolin-6-yl)benzonitrile]
COc1ccc(-c2ccc3nccc(Nc4ccc(N5CCN(CCO)CC5)cc4)c3c2)cc1 [2-(4-(4-(6-(4-methoxyphenyl)quinolin-4-ylamino)phenyl)piperazin-1-yl)ethanol]
Cc1ccc(-c2ccc3nccc(Nc4ccc(N5CCC(N(C)C)C5)cc4)c3c2)cc1C (centres unmarked) [N-(4-(3-(dimethylamino)pyrrolidin-1-yl)phenyl)-6-(3,4-dimethylphenyl)quinolin-4-amine]
CN1CCN(c2ccc(Nc3ccnc4ccc(-c5ccc(CCC(=O)O)cc5)cc34)cc2)CC1 [3-(4-(4-(4-(4-methylpiperazin-1-yl)phenylamino)quinolin-6-yl)phenyl)propanoic acid]
CCN(CC)C1CCN(c2ccc(Nc3ccnc4ccc(-c5ccc(C#N)cc5)cc34)cc2)C1 (centres unmarked) [4-(4-(4-(3-(diethylamino)pyrrolidin-1-yl)phenylamino)quinolin-6-yl)benzonitrile]
CN1CCN(c2ccc(Oc3ccnc4ccc(-c5ccc(C#N)cc5)cc34)cc2)CC1 [4-(4-(4-(4-methylpiperazin-1-yl)phenoxy)quinolin-6-yl)benzonitrile]
Cc1cc(-c2ccc3nccc(Nc4ccc(N5CCC(N(C)C)C5)cc4)c3c2)ccc1C#N (centres unmarked) [4-(4-(4-(3-(dimethylamino)pyrrolidin-1-yl)phenylamino)quinolin-6-yl)-2-methylbenzonitrile]
CCCN(c1ccc(N2CCN(C)CC2)cc1)c1ccnc2ccc(-c3ccc(OC)cc3)cc12 [6-(4-methoxyphenyl)-N-(4-(4-methylpiperazin-1-yl)phenyl)-N-propylquinolin-4-amine]
CCCN1CCN(c2ccc(Nc3ccnc4ccc(-c5ccc(OC)cc5)cc34)cc2)CC1 [6-(4-methoxyphenyl)-N-(4-(4-propylpiperazin-1-yl)phenyl)quinolin-4-amine]
CCN(CC)c1ccc(-c2ccc3nccc(Nc4ccc(N5CCC(N(C)C)C5)cc4)c3c2)cc1 (centres unmarked) [6-(4-(diethylamino)phenyl)-N-(4-(3-(dimethylamino)pyrrolidin-1-yl)phenyl)quinolin-4-amine]
CCN1CCN(c2ccc(Nc3ccnc4ccc(-c5ccc(OC)cc5)cc34)cc2)CC1 [N-(4-(4-ethylpiperazin-1-yl)phenyl)-6-(4-methoxyphenyl)quinolin-4-amine]
CCN(CC)C1CCN(c2ccc(Nc3ccnc4ccc(-c5ccc(Cl)cc5)cc34)cc2)C1 (centres unmarked) [6-(4-chlorophenyl)-N-(4-(3-(diethylamino)pyrrolidin-1-yl)phenyl)quinolin-4-amine]
CN1CCN(c2ccc(Nc3ccnc4ccc(-c5ccc(C#N)cc5)cc34)cn2)CC1 [4-(4-(6-(4-methylpiperazin-1-yl)pyridin-3-ylamino)quinolin-6-yl)benzonitrile]
OCCN1CCN(c2ccc(Nc3ccnc4ccc(-c5ccccc5)cc34)cc2)CC1 [2-(4-(4-(6-phenylquinolin-4-ylamino)phenyl)piperazin-1-yl)ethanol]
N#Cc1ccc(-c2ccc3nccc(Nc4ccc(N5CCN(CCCO)CC5)cc4)c3c2)cc1 [4-(4-(4-(4-(3-hydroxypropyl)piperazin-1-yl)phenylamino)quinolin-6-yl)benzonitrile]
CCC(CC)N1CCN(c2ccc(Nc3ccnc4ccc(-c5ccccc5)cc34)cc2)CC1 [N-(4-(4-(pentan-3-yl)piperazin-1-yl)phenyl)-6-phenylquinolin-4-amine]
N#Cc1ccc(-c2ccc3nccc(Nc4ccc(N5CCN(CCO)CC5)cc4)c3c2)cc1 [4-(4-(4-(4-(2-hydroxyethyl)piperazin-1-yl)phenylamino)quinolin-6-yl)benzonitrile]
CN(C)C1CCN(c2ccc(Nc3ccnc4ccc(-c5ccc(Cl)c(Cl)c5)cc34)cc2)C1 (centres unmarked) [6-(3,4-dichlorophenyl)-N-(4-(3-(dimethylamino)pyrrolidin-1-yl)phenyl)quinolin-4-amine]
Cc1cc(-c2ccc3nccc(Nc4ccc(N5CCC(N(C)C)C5)cc4)c3c2)ccc1F (centres unmarked) [N-(4-(3-(dimethylamino)pyrrolidin-1-yl)phenyl)-6-(4-fluoro-3-methylphenyl)quinolin-4-amine]
CN(C)CC1CCN(c2ccc(Nc3ccnc4ccc(-c5ccc(C#N)cc5)cc34)cc2)CC1 [4-(4-(4-(4-((dimethylamino)methyl)piperidin-1-yl)phenylamino)quinolin-6-yl)benzonitrile]
Cc1ccc(-c2ccc3nccc(Nc4ccc(N5CCC(N(C)C)C5)cc4)c3c2)cc1 (centres unmarked) [N-(4-(3-(dimethylamino)pyrrolidin-1-yl)phenyl)-6-p-tolylquinolin-4-amine]
COCCN1CCN(c2ccc(Nc3ccnc4ccc(-c5ccc(C#N)cc5)cc34)cc2)CC1 [4-(4-(4-(4-(2-methoxyethyl)piperazin-1-yl)phenylamino)quinolin-6-yl)benzonitrile]
CN(C)C1CCN(c2ccc(Nc3ccnc4ccc(-c5nccs5)cc34)cc2)C1 (centres unmarked) [N-(4-(3-(dimethylamino)pyrrolidin-1-yl)phenyl)-6-(thiazol-2-yl)quinolin-4-amine]
CC1CCN(c2ccc(Nc3ccnc4ccc(-c5ccc(C#N)cc5)cc34)cc2)CC1 [4-(4-(4-(4-methylpiperidin-1-yl)phenylamino)quinolin-6-yl)benzonitrile]
CN(CCC(F)(F)F)C1CCN(c2ccc(Nc3ccnc4ccc(-c5ccc(C#N)cc5)cc34)cc2)C1 (centres unmarked) [4-(4-(4-(3-(methyl(3,3,3-trifluoropropyl)amino)pyrrolidin-1-yl)phenylamino)quinolin-6-yl)benzonitrile]
CN(C)C1CCCN(c2ccc(Nc3ccnc4ccc(-c5ccc(C#N)cc5)cc34)cc2)C1 (centres unmarked) [4-(4-(4-(3-(dimethylamino)piperidin-1-yl)phenylamino)quinolin-6-yl)benzonitrile]
CN1CCN(c2ccc(Nc3ccnc4ccc(-c5cc(Cl)ccc5Cl)cc34)cc2)CC1 [6-(2,5-dichlorophenyl)-N-(4-(4-methylpiperazin-1-yl)phenyl)quinolin-4-amine]
COc1cc(-c2ccc3nccc(Nc4ccc(N5CCC(N(C)C)C5)cc4)c3c2)ccc1Cl (centres unmarked) [6-(4-chloro-3-methoxyphenyl)-N-(4-(3-(dimethylamino)pyrrolidin-1-yl)phenyl)quinolin-4-amine]
COc1ccc(-c2ccc3nccc(Nc4ccc(N5CCN(CC(=O)N(C)C)CC5)cc4)c3c2)cc1 [2-(4-(4-(6-(4-methoxyphenyl)quinolin-4-ylamino)phenyl)piperazin-1-yl)-N,N-dimethylacetamide]
